Here are results for 26 molecules from US20250074911A1, “MACROCYCLIC BTK INHIBITORS” (Crossfire Oncology Holding B.V., priority 2021, published 2025).

The target in assay [1] is full-length BTK C481S enzyme (Homo sapiens (Human), UniProt Q06187, C481S). Briefly: Biochemical kinase assay BTK C481S (IMAP). On the procedure: Biochemical kinase assay BTK […] To determine the inhibitory activity of compounds on BTK C481S enzyme activity, the IMAP® assay (Molecular Devices) was used. […] After pre-incubation of 1 hour in the dark at room temperature, fluorescein-labeled MBP-derived substrate peptide (Molecular Devices, cat. no. RP 7123) was added, followed by ATP to start the reaction. Final enzyme concentration was 1.2 nM final substrate concentration 50 nM, and final ATP concentration was 7 μM. The reaction was allowed to proceed for 2 hours at room temperature in the dark. The reaction was stopped by quenching with IMAP progressive binding solution according to the protocol of the manufacturer (Molecular Devices). Fluorescein polarization was measured on an Envision multimode reader (Perkin Elmer, Waltham, MA, U.S.A.). IC50 were calculated using XLfitTM5 software (ID Business Solutions, Ltd., Surrey, U.K.). Results of the BTK […] binding affinity are shown in Table 1 below. • IC50 BTK […]: […]
Sequence of full-length BTK C481S enzyme (Q06187 whole entry C481S): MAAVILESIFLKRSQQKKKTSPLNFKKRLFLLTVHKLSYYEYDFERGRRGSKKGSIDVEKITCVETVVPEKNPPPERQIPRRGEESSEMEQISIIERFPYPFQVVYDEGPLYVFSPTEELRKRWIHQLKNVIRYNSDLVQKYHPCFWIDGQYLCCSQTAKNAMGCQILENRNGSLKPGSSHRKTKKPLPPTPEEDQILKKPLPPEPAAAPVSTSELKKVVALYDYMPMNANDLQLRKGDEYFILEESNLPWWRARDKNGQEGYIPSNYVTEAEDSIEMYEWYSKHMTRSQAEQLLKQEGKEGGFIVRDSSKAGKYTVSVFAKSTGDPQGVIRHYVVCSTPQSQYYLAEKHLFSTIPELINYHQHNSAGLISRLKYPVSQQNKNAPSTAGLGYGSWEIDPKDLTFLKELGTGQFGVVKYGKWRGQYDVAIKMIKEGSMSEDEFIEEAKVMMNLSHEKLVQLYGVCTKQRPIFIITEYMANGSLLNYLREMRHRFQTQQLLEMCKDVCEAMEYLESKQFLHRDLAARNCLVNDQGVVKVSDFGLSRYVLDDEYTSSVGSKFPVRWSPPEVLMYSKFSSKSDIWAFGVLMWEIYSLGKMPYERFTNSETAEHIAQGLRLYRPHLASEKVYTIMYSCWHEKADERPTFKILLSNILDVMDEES

Assay [2] deals with REC-1 T474I cell lines. Briefly: Cell proliferation assay REC-1 BTK T474I knock-in cells (ATPlite, 72 hours). Type of assay: cell-based. The note with it: Homo sapiens, Rec1; 72 hours; read-out: IC50 REC-1 T474I. As to the method: Cell proliferation assay Generation of BTK […] knock-in cell lines wt-REC-1 cell lines expressing mutant BTK were created at Synthego Corporation. Cell lines expressing BTK […] was generated via CRISPR/Cas9. Monoclonal REC-1 […] cell lines were obtained by single cell cloning. The mutation status of all cell lines was confirmed via sequencing. […] Luminescence was recorded on an Envision multimode reader. The cell signal at the start of incubation was recorded separately in order to distinguish between cell population growth and cell death. In addition, maximum growth was determined by incubation of a duplicate without compound in the presence of 0.3% DMSO. Percentage growth was used as the main y-axis signal.
In general terms: ATP-based viability assays read luminescence as a measure of living cells.

In assay [3] the test system is wt-REC-1 mantle cell lymphoma cells. Put plainly: Cell proliferation assay wt-REC-1 (ATPlite, 72 hours). The settings on record: 72 h; read-out: IC50 wt-REC-1. Type of assay: cell-based. As to the method:
Results of the BTK […] binding affinity are shown in Table 1 below. • IC50 BTK […]: […] wt-REC-1 mantle cell lymphoma cells were purchased from American Type Culture Collection via Synthego Corporation (cat. no. CRL-3004, ATCC). […] Luminescence was recorded on an Envision multimode reader. The cell signal at the start of incubation was recorded separately in order to distinguish between cell population growth and cell death. In addition, maximum growth was determined by incubation of a duplicate without compound in the presence of 0.3% DMSO. Percentage growth was used as the main y-axis signal. IC50s were fitted by non-linear regression using IDBS XLfitTM5 using a 4-parameter logistic curve, yielding a maximum signal, minimum signal, hill-parameter and IC50. Results of the wt-REC-1 proliferation are shown in Table 1 below. • IC50 wt-REC-1: […]

Assay [4] concerns the target full-length wt-BTK enzyme (Homo sapiens (Human), UniProt Q06187). Put plainly: Biochemical kinase assay wt-BTK (IMAP). As to the method: Biochemical kinase assay wt-BTK To determine the inhibitory activity of compounds on wt-BTK enzyme activity, the IMAP® assay (Molecular Devices) was used. […] After pre-incubation of 1 hour in the dark at room temperature, fluorescein-labeled MBP-derived substrate peptide (Molecular Devices, cat. no. RP 7123) was added, followed by ATP to start the reaction. Final enzyme concentration was 1.2 nM, final substrate concentration 50 nM, and final ATP concentration was 4 μM. The reaction was allowed to proceed for 2 hours at room temperature in the dark. The reaction was stopped by quenching with IMAP progressive binding solution according to the protocol of the manufacturer (Molecular Devices). Fluorescein polarization was measured on an Envision multimode reader (Perkin Elmer, Waltham, MA, U.S.A.). […] Results of the wt-BTK binding affinity are shown in Table 1 below. • IC50 wt-BTK: […]

Sequence of full-length wt-BTK enzyme (Q06187 whole entry): as the sequence (Q06187 whole entry C481S) above, with S481C counted along it

By IC50 is commonly meant the midpoint of a concentration-inhibition curve. Turning to `COC1/C=C/c2cnc(N)c3c(-c4ccc(C(=O)Nc5cc(C(F)(F)F)ccn5)cc4)nn(c23)[C@@H]2CCC[C@H](C2)NC(=O)CCC1` (stereo partly shown) [Example 19], the half-inhibitory concentration (IC50) in assay [1] was in the range of 0.005 to 0.05 µM; in assay [2], 0.5 to 10 µM; in assay [3] it was 0.1 to 1 µM; in assay [4], 0.005 to 0.05 µM.
With `Nc1ncc2c3c1c(-c1ccc(C(=O)Nc4cc(C(F)(F)F)ccn4)cc1)nn3[C@@H]1CCC[C@H](C1)NC(=O)CCCCNC/C=C/2` [Example 22], the IC50 in assay [1] is below 0.005 µM; in assay [2], 0.5 to 10 µM; in assay [3], 0.1 to 1 µM; in assay [4], below 0.005 µM.
Consider `C[C@@H]1CCn2nc(-c3ccc(C(=O)Nc4cc(C(F)(F)F)ccn4)cc3)c3c(N)ncc(c32)/C=C/CO[C@@H](C)C(=O)N1` [Example 58], for which the IC50 in assay [1] lay within 0.005 to 0.05 µM; in assay [2] it was 0.5 to 10 µM; in assay [3], 1 to 10 µM; in assay [4], 0.005 to 0.05 µM.
Consider `C[C@@H]1CCn2nc(-c3ccc(C(=O)Nc4cc(C(F)(F)F)ccn4)cc3)c3c(N)ncc(c32)/C=C/CCCCCCC(=O)N1` [Example 62], for which the 50% inhibitory concentration (IC50) was below 0.005 µM in assay [1], 0.5 to 10 µM in assay [2], 0.1 to 1 µM in assay [3] and below 0.005 µM in assay [4].
Regarding `C[C@@H]1CCn2nc(-c3ccc(C(=O)Nc4cc(C(F)(F)F)ccn4)cc3)c3c(N)ncc(c32)/C=C/CCCCCCCC(=O)N1` [Example 63], the IC50 in assay [1] is below 0.005 µM; in assay [2] it was 0.5 to 10 µM; in assay [3], 0.1 to 1 µM; in assay [4], below 0.005 µM.
As to `C[C@@H]1CCn2nc(-c3ccc(C(=O)Nc4cc(C(F)(F)F)ccn4)cc3)c3c(N)ncc(c32)/C=C/CCCCCCCCC(=O)N1` [Example 64], the IC50 in assay [1] was below 0.005 µM; in assay [2], 0.5 to 10 µM; in assay [3], 0.1 to 1 µM; in assay [4], 0.005 to 0.05 µM.
With `C[C@@H]1CCn2nc(-c3ccc(C(=O)Nc4cc(C(F)(F)F)ccn4)cc3)c3c(N)ncc(c32)/C=C/C[S+]([O-])CC(=O)N1` (stereo partly shown) [Example 65], the IC50 in assay [1] is below 0.005 µM; in assay [2], 0.5 to 10 µM; in assay [3], 1 to 10 µM; in assay [4], below 0.005 µM.
Regarding `C[C@@H]1CCn2nc(-c3ccc(C(=O)Nc4cc(C(F)(F)F)ccn4)cc3)c3c(N)ncc(c32)/C=C/CN(C)CCCC(=O)N1` [Example 66], the IC50 was below 0.005 µM in assay [1], 0.5 to 10 µM in assay [2], 1 to 10 µM in assay [3] and below 0.005 µM in assay [4].
With `C[C@@H]1CCn2nc(-c3ccc(C(=O)Nc4cc(C(F)(F)F)ccn4)cc3)c3c(N)ncc(c32)/C=C/CNCCCC(=O)N1` [Example 67], the IC50 in assay [1] was below 0.005 µM; in assay [2] it was 0.5 to 10 µM; in assay [3], 1 to 10 µM; in assay [4] it was below 0.005 µM.
For `Nc1ncc2c3c1c(-c1ccc(C(=O)Nc4cc(C(F)(F)F)ccn4)cc1)nn3[C@@H]1CCC[C@H](C1)C(=O)NCCC/C=C/C2` [Example 84a], the IC50 in assay [1] lay in the range of 0.005 to 0.05 µM; in assay [2], 0.5 to 10 µM; in assay [3] it was 0.1 to 1 µM; in assay [4], 0.005 to 0.05 µM.
For the molecule `Nc1ncc2c3c1c(-c1ccc(C(=O)Nc4cc(C(F)(F)F)ccn4)cc1)nn3[C@@H]1CCC[C@H](C1)C(=O)NCCC/C=C\C2` [Example 84b], the IC50 in assay [1] is below 0.005 µM; in assay [3], 0.1 to 1 µM; in assay [4] it was 0.005 to 0.05 µM.
Take `Nc1ncc2c3c1c(-c1ccc(C(=O)Nc4cc(C(F)(F)F)ccn4)cc1)nn3[C@@H]1CCC[C@H](C1)C(=O)NCCCC/C=C/C2` [Example 85a]: the IC50 in assay [1] lay within 0.05 to 0.5 µM; in assay [2], 0.5 to 10 µM; in assay [3], 0.1 to 1 µM; in assay [4], 0.005 to 0.05 µM.
On to `Nc1ncc2c3c1c(-c1ccc(C(=O)Nc4ccccn4)cc1)nn3[C@@H]1CCC[C@H](C1)C(=O)NCCCC/C=C/C2` [Example 87a], for which the IC50 in assay [1] was in the range of 0.05 to 0.5 µM; in assay [2], 0.5 to 10 µM; in assay [3], 1 to 10 µM; in assay [4], 0.05 to 0.5 µM.
As to `Nc1ncc2c3c1c(-c1ccc(C(=O)Nc4ccccn4)cc1)nn3[C@@H]1CCC[C@H](C1)C(=O)NCCCCC/C=C/C2` [Example 88a], the IC50 is 0.005 to 0.05 µM in assay [1], 0.5 to 10 µM in assay [2], 0.1 to 1 µM in assay [3] and 0.005 to 0.05 µM in assay [4].
Take `Nc1ncc2c3c1c(-c1ccc(C(=O)Nc4cc(C(F)(F)F)ccn4)cc1)nn3[C@@H]1CCC[C@H](C1)C(=O)NCCCCC/C=C/C2` [Example 89a]: the IC50 in assay [1] is 0.005 to 0.05 µM; in assay [2] it was 0.5 to 10 µM; in assay [3] it was 0.1 to 1 µM; in assay [4] it was 0.005 to 0.05 µM.
For the molecule `Nc1ncc2c3c1c(-c1ccc(C(=O)Nc4ccccn4)cc1)nn3[C@@H]1CCC[C@H](C1)C(=O)NCCC/C=C\C2` [Example 90], the IC50 is 0.005 to 0.05 µM in assay [1], 0.5 to 10 µM in assay [2], 0.1 to 1 µM in assay [3] and 0.005 to 0.05 µM in assay [4].
Consider `Nc1ncc2c3c1c(-c1ccc(C(=O)Nc4ccccn4)cc1)nn3[C@@H]1CCC[C@H](C1)C(=O)NCC/C=C\C2` [Example 91], for which the IC50 was 0.05 to 0.5 µM in assay [1], 0.5 to 10 µM in assay [2], 1 to 10 µM in assay [3] and 0.05 to 0.5 µM in assay [4].
On to `Nc1ncc2c3c1c(-c1ccc(C(=O)Nc4cc(C(F)(F)F)ccn4)cc1)nn3[C@@H]1CCC[C@H](C1)C(=O)NCCCCCC/C=C\C2` [Example 92], for which the IC50 in assay [1] fell in the range of 0.005 to 0.05 µM; in assay [2], 0.5 to 10 µM; in assay [3], 0.1 to 1 µM; in assay [4] it was 0.005 to 0.05 µM.
Consider `Nc1ncc2c3c1c(-c1ccc(C(=O)Nc4ccccn4)cc1)nn3[C@@H]1CCC[C@H](C1)C(=O)NCCCCCC/C=C\C2` [Example 93], for which the IC50 in assay [1] was below 0.005 µM; in assay [2], 0.5 to 10 µM; in assay [3], 0.1 to 1 µM; in assay [4] it was 0.005 to 0.05 µM.
Regarding `Nc1ncc2c3c1c(-c1ccc(C(=O)Nc4cc(C(F)(F)F)ccn4)cc1)nn3[C@@H]1CCC[C@H](C1)NC(=O)CCC/C=C/C2` [Example 94a], the IC50 in assay [1] was 0.005 to 0.05 µM; in assay [2], 0.5 to 10 µM; in assay [3], 0.1 to 1 µM; in assay [4] it was 0.005 to 0.05 µM.
Consider `Nc1ncc2c3c1c(-c1ccc(C(=O)Nc4cc(C(F)(F)F)ccn4)cc1)nn3[C@@H]1CCC[C@H](C1)NC(=O)CCC/C=C\C2` [Example 94b], for which the IC50 in assay [1] is below 0.005 µM; in assay [2] it was 0.5 to 10 µM; in assay [3] it was 0.1 to 1 µM; in assay [4], below 0.005 µM.
In the case of `Nc1ncc2c3c1c(-c1ccc(C(=O)Nc4cc(C(F)(F)F)ccn4)cc1)nn3[C@@H]1CCC[C@H](C1)NC(=O)CC/C=C/C2` [Example 95], the IC50 in assay [1] is 0.005 to 0.05 µM; in assay [2], 0.5 to 10 µM; in assay [3] it was 1 to 10 µM; in assay [4], 0.005 to 0.05 µM.
With `Nc1ncc2c3c1c(-c1ccc(C(=O)Nc4ccccn4)cc1)nn3[C@@H]1CCC[C@H](C1)NC(=O)CC/C=C/C2` [Example 96a], the half-maximal inhibitory concentration (IC50) in assay [1] lay in the range of 0.05 to 0.5 µM; in assay [2] it was 0.5 to 10 µM; in assay [3] it was 1 to 10 µM; in assay [4], 0.05 to 0.5 µM.
As for `Nc1ncc2n3c(nc(-c4ccc(C(=O)Nc5cc(C(F)(F)F)ccn5)cc4)c13)CCCNC(=O)CCC=CC2` [Example 134], the IC50 fell in the range of 0.005 to 0.05 µM in assay [1], 1 to 10 µM in assay [3] and 0.005 to 0.05 µM in assay [4].
Turning to `Nc1ncc2n3c(nc(-c4ccc(C(=O)Nc5cc(C(F)(F)F)ccn5)cc4)c13)CCCNC(=O)CCCC=CC2` [Example 135], the IC50 was 0.005 to 0.05 µM in assay [1], 1 to 10 µM in assay [3] and 0.005 to 0.05 µM in assay [4].
For the molecule `Nc1ncc2n3c(nc(-c4ccc(C(=O)Nc5cc(C(F)(F)F)ccn5)cc4)c13)[C@@H]1CCC[C@H](C1)NC(=O)CC/C=C/C2` [Example 136], the IC50 in assay [1] was 0.005 to 0.05 µM; in assay [3], 1 to 10 µM; in assay [4] it was 0.005 to 0.05 µM.
